Laboratory results published in patent publication US20250114345A1, “COMPOUNDS AND COMPOSITIONS AS CBP/P300 DEGRADERS AND USES THEREOF” (Oncopia Therapeutics, Inc. d/b/a/ SK Life Science Labs, priority 2023, published 2025).

Legend:
CBP = target: T1, CBP (Homo sapiens, UniProt Q92793); assay: CBP degradation, HiBit technology in A549 CBP HiBit cells (24 h); type: cell-based; details: 24 hrs post treatment
T1 construct: host or cells: A549 CBP HiBit cells
How it was run: (§1)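 Cells: A549 HiBiT-tagged lines, 0.2×10^4/well, F-12K + 10% HI-FBS, equilibrated overnight. Tx: serial dilution of cpd (10 mM DMSO stock). Readout: HiBiT lytic reagent, 10 min RT shaking, luminescence → potency, Dmax.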

p300 = target: T2, p300 (Homo sapiens, UniProt Q09472); assay: P300 degradation, HiBit technology in A549 P300 HiBit cells (2 h); type: cell-based; details: 2 hrs post treatment; for Dmax: A549, A549 P300 HiBit cells; for DC50: A549 P300 HiBit cells
T2 construct: host or cells: A549 P300 HiBit cells
How it was run: as §1

T2 sequence (Q09472 whole entry): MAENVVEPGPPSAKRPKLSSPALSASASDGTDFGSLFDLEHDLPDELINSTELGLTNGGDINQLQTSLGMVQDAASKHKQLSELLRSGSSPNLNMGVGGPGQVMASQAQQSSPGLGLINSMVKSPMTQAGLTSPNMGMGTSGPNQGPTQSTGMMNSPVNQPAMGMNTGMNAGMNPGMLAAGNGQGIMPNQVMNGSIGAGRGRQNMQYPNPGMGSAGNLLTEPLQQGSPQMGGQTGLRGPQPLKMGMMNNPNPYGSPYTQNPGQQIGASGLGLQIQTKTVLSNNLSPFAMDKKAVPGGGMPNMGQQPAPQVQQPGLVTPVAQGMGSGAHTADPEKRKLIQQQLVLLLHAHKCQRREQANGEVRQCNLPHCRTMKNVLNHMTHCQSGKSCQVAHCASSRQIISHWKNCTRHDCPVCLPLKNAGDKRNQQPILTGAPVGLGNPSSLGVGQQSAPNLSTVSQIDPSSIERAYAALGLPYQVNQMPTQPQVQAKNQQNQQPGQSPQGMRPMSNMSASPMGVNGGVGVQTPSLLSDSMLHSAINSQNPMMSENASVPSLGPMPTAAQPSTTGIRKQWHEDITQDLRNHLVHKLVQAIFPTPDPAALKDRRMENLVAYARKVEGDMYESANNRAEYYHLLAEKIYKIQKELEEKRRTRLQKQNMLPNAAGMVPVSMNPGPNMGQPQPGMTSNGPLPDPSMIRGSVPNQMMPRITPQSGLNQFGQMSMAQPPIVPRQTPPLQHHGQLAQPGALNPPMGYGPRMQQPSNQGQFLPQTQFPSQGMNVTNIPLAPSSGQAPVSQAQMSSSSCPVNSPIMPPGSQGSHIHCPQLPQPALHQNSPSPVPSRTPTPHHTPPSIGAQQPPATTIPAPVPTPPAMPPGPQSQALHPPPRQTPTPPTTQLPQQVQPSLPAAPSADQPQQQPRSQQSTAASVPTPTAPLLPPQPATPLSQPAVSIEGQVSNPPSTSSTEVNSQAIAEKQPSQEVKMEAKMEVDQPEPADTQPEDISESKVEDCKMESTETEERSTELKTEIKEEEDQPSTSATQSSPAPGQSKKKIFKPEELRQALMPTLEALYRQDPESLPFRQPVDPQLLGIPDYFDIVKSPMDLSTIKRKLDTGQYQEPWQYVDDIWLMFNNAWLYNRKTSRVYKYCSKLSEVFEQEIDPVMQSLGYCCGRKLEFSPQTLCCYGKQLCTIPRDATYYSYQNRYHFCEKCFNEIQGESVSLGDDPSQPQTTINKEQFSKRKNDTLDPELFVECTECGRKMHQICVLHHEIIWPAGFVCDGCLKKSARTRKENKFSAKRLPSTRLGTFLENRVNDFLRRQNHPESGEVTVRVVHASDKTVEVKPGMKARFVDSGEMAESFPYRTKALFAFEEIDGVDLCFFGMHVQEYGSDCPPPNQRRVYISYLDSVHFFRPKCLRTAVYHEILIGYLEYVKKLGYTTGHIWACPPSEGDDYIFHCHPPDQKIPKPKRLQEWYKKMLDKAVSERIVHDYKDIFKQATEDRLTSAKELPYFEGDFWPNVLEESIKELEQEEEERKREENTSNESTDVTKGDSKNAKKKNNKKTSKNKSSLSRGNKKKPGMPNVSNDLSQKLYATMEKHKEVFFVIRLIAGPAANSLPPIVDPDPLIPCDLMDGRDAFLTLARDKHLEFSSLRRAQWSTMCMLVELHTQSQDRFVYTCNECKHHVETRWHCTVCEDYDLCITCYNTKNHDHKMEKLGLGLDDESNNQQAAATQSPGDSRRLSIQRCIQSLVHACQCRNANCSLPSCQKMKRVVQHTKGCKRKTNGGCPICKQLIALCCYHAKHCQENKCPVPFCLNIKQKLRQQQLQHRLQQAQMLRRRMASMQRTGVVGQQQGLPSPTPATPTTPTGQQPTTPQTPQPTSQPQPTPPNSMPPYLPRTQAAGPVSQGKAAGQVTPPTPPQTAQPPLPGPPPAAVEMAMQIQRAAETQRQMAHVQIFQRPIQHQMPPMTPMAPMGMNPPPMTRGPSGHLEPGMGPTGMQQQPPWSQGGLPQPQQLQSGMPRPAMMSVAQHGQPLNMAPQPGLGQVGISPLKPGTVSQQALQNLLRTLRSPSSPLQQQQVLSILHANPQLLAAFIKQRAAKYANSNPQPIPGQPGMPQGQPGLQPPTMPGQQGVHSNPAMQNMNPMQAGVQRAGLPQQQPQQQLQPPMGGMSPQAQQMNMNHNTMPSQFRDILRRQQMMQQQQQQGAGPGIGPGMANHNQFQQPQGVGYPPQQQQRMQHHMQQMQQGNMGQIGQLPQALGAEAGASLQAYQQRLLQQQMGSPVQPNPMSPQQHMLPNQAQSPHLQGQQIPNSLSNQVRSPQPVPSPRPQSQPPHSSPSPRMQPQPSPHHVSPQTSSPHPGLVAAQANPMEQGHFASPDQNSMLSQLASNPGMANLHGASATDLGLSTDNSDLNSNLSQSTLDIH
T1 sequence (Q92793 whole entry): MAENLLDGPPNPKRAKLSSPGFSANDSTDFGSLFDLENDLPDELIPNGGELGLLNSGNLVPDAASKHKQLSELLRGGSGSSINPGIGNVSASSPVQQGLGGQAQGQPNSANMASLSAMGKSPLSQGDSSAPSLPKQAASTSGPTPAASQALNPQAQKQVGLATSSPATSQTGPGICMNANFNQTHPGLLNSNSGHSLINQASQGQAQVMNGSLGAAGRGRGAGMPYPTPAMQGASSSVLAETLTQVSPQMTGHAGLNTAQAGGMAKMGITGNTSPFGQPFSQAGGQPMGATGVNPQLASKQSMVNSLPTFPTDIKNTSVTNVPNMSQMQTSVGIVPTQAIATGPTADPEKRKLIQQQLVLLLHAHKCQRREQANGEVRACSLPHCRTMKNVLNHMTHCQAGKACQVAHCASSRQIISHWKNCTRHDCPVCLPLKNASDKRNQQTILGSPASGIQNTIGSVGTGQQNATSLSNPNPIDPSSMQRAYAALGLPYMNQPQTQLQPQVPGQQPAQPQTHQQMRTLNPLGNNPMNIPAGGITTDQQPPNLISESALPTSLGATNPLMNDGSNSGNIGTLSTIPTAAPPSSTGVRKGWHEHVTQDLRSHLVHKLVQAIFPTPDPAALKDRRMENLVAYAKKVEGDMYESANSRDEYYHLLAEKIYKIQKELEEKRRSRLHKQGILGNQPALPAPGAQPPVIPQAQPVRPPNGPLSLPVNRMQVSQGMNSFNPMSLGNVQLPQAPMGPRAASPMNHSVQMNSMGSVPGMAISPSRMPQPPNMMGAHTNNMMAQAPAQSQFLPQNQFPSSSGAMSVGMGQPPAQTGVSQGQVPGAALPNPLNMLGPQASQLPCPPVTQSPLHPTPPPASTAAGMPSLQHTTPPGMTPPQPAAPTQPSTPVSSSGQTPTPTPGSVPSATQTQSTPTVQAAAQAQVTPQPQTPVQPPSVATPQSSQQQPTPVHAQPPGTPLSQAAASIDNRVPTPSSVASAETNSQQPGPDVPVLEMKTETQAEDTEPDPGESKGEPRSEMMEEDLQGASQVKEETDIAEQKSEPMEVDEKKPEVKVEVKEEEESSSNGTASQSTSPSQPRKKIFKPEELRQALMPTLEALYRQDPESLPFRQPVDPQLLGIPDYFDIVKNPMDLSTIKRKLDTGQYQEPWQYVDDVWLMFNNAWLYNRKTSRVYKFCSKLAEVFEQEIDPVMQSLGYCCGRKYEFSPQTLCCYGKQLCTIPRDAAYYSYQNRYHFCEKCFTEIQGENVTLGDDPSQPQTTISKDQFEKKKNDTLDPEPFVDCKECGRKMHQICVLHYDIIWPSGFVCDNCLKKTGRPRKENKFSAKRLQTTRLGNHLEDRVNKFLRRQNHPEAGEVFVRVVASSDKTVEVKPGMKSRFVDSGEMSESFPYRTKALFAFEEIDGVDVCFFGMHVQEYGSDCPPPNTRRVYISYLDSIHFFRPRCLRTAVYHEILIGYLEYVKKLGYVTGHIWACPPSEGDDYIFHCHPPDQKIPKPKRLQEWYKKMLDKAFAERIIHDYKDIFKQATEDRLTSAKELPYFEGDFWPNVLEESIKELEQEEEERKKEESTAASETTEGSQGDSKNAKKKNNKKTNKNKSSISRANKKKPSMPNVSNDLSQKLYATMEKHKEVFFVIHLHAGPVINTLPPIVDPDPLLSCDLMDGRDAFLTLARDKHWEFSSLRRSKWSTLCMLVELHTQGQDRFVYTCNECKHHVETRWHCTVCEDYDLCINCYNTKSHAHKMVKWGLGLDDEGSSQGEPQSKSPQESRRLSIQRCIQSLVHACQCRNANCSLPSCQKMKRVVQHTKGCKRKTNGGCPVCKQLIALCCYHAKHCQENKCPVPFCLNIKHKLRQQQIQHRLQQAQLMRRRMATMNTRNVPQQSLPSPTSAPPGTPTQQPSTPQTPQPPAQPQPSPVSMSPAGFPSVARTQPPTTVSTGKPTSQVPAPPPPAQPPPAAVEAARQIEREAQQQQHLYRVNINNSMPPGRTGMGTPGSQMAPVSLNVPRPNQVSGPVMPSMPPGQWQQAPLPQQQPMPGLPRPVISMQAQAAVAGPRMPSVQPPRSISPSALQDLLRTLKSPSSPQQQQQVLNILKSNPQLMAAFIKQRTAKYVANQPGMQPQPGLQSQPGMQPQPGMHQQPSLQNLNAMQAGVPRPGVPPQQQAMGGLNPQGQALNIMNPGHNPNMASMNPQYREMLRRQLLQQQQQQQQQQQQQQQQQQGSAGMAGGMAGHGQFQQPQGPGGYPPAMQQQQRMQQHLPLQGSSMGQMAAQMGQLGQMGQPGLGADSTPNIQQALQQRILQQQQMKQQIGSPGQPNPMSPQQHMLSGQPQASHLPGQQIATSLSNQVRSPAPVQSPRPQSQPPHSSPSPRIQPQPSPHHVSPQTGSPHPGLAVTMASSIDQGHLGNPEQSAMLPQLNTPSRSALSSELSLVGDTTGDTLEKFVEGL

Compound	DC50 (CBP) [nM]	Dmax (CBP) [%]	Dmax (p300) [%]	DC50 (p300) [nM]
Cc1cc(-c2ncc3c(n2)OCCN3c2ccc3c(c2)n(C)c(=O)n3C)cnc1C(=O)NCC#Cc1cc2ccnc(C3CCC(=O)NC3=O)c2o1 (stereo not drawn) [Example A251, 5-(5-(1,3-dimethyl-2-oxo-2,3-dihydro-1H-benzo[d]imidazol-5-yl)-6,7-dihydro-5H-pyrimido[4,5-b][1,4]oxazin-2-yl)-N-(3-(7-(2,6-dioxopiperidin-3-yl)furo[2,3-c]pyridin-2-yl)prop-2-yn-1-yl)-3-methylpicolinamide]	> 1000	< 20	60 to 79	10 to 99
CC(C)c1cc(-c2cccc3cc(-c4ccc(C(=O)NCC#Cc5cc(F)c6occ(C7CCC(=O)NC7=O)c6c5)nc4)ncc23)cc2c1n(C)c(=O)n2C (stereo not drawn) [Example A254, N-(3-(3-(2,6-dioxo-piperidin-3-yl)-7-fluorobenzofuran-5-yl)prop-2-yn-1-yl)-5-(8-(7-isopropyl-1,3-dimethyl-2-oxo-2,3-dihydro-1H-benzo [d]imidazol-5-yl)isoquinolin-3-yl)picolinamide]	> 1000	< 20	> 80	1 to 9.9
Cn1c(=O)n(C)c2cc(-c3cccc4cc(-c5ccc(C(=O)NCC#Cc6ccc7cnn(C8CCC(=O)NC8=O)c7c6)nc5)ncc34)ccc21 (stereo not drawn) [Example A255, 5-(8-(1,3-dimethyl-2-oxo-2,3-dihydro-1H-benzo[d]imidazol-5-yl)isoquinolin-3-yl)-N-(3-(1-(2,6-dioxo-piperidin-3-yl)-1H-indazol-6-yl)prop-2-yn-1-yl)picolinamide]	> 1000	< 20	> 80	1 to 9.9
Cn1c(=O)n(C)c2c(N3CCC(C)(O)CC3)nc(-c3cccc4cc(-c5ccc(C(=O)NCC#Cc6cc7c(C8CCC(=O)NC8=O)cccc7o6)nc5)ncc34)cc21 (stereo not drawn) [Example A258, N-(3-(4-(2,6-dioxo-piperidin-3-yl)benzofuran-2-yl)prop-2-yn-1-yl)-5-(8-(4-(4-hydroxy-4-methylpiperidin-1-yl)-1,3-dimethyl-2-oxo-2,3-dihydro-1H-imidazo[4,5-c]pyridin-6-yl)isoquinolin-3-yl)picolinamide]	> 1000	< 20	> 80	< 1
Cn1c(=O)n(C)c2cc(C3=CC(C)(C)Oc4cc(-c5ccc(C(=O)NCC#Cc6cc7c(C8CCC(=O)NC8=O)cccc7o6)nc5)ncc43)ccc21 (stereo not drawn) [Example A259, 5-(4-(1,3-dimethyl-2-oxo-2,3-dihydro-1H-benzo[d]imidazol-5-yl)-2,2-dimethyl-2H-pyrano[3,2-c]pyridin-7-yl)-N-(3-(4-(2,6-dioxopiperidin-3-yl)benzofuran-2-yl)prop-2-yn-1-yl)picolinamide]	> 1000	< 20	> 80	1 to 9.9
CCn1c(=O)n(C)c2c(N3CCOCC3)nc(-c3cccc4cc(-c5ccc(C(=O)NCC#Cc6cc7c(C8CCC(=O)NC8=O)cccc7o6)nc5)ncc34)cc21 (stereo not drawn) [Example A260, N-(3-(4-(2,6-dioxo-piperidin-3-yl)benzofuran-2-yl)prop-2-yn-1-yl)-5-(8-(1-ethyl-3-methyl-4-morpholino-2-oxo-2,3-dihydro-1H-imidazo[4,5-c]pyridin-6-yl)isoquinolin-3-yl)picolinamide]	> 1000	< 20	> 80	< 1
Cn1c(=O)n(C)c2c(C3CC3)cc(-c3cccc4cc(-c5ccc(C(=O)NCC#Cc6cc7c(C8CCC(=O)NC8=O)cccc7o6)nc5)ncc34)cc21 (stereo not drawn) [Example A261, 5-(8-(7-cyclopropyl-1,3-dimethyl-2-oxo-2,3-dihydro-1H-benzo[d]imidazol-5-yl)isoquinolin-3-yl)-N-(3-(4-(2,6-dioxopiperidin-3-yl)benzofuran-2-yl)prop-2-yn-1-yl)picolinamide]	> 1000	< 20	> 80	1 to 9.9
Cn1c(=O)n(C)c2cc(C3=CC(C)(C)Oc4cc(-c5ccc(C(=O)NCC#Cc6ccc7occ(C8CCC(=O)NC8=O)c7c6)nc5)ncc43)ccc21 (stereo not drawn) [Example A263, 5-(4-(1,3-dimethyl-2-oxo-2,3-dihydro-1H-benzo[d]imidazol-5-yl)-2,2-dimethyl-2H-pyrano[3,2-c]pyridin-7-yl)-N-(3-(3-(2,6-dioxopiperidin-3-yl)benzofuran-5-yl)prop-2-yn-1-yl)picolinamide]	> 1000	< 20	> 80	1 to 9.9
Cc1cc(-c2cc3cccc(-c4cc(C(C)C)c5c(c4)n(C)c(=O)n5C)c3cn2)cnc1C(=O)NCC#Cc1ccc2c(c1)c(C1CCC(=O)NC1=O)nn2C (stereo not drawn) [Example A269, N-(3-(3-(2,6-dioxopiperidin-3-yl)-1-methyl-1H-indazol-5-yl)prop-2-yn-1-yl)-5-(8-(7-isopropyl-1,3-dimethyl-2-oxo-2,3-dihydro-1H-benzo[d]imidazol-5-yl)iso-quinolin-3-yl)-3-methylpicolinamide]	10 to 99	> 80	> 80	1 to 9.9
CC(C)c1cc(N2CCN(C)c3cc(-c4ccc(C(=O)NCC#Cc5cccc(NC6CCC(=O)NC6=O)c5)nc4)ncc32)cc2c1n(C)c(=O)n2C (stereo not drawn) [Example A270, N-(3-(3-((2,6-dioxopiperidin-3-yl)amino)phenyl)prop-2-yn-1-yl)-5-(4-(7-isopropyl-1,3-dimethyl-2-oxo-2,3-dihydro-1H-benzo[d]imidazol-5-yl)-1-methyl-1,2,3,4-tetrahydro-pyrido[3,4-b]pyrazin-7-yl)picolinamide]	1 to 9.9	60 to 79	> 80	< 1
Cn1c(=O)n(C)c2c(N3CCC(C)(O)CC3)cc(-c3cccc4cc(-c5ccc(C(=O)NCC#Cc6cccc(NC7CCC(=O)NC7=O)c6)nc5)ncc34)cc21 (stereo not drawn) [Example A271, N-(3-(3-((2,6-dioxopiperidin-3-yl)amino)phenyl)prop-2-yn-1-yl)-5-(8-(7-(4-hydroxy-4-methylpiperidin-1-yl)-1,3-dimethyl-2-oxo-2,3-dihydro-1H-benzo[d]imidazol-5-yl)isoquinolin-3-yl)picolinamide]	1 to 9.9	60 to 79	> 80	< 1
CCc1cc(-c2cccc3cc(-c4ccc(C(=O)NCC#Cc5ccc6ncn(C7CCC(=O)NC7=O)c6c5)nc4)ncc23)c2cc(C)c(=O)n(C)c2c1 (stereo not drawn) [Example B2, N-(3-(1-(2,6-Dioxopiperidin-3-yl)-1H-benzo[d]imidazol-6-yl)prop-2-yn-1-yl)-5-(8-(7-ethyl-1,3-dimethyl-2-oxo-1,2-dihydroquinolin-5-yl)isoquinolin-3-yl)picolinamide]	> 1000	< 20	60 to 79	1 to 9.9
CCc1cc(-c2cccc3cc(-c4ccc(C(=O)NCC#Cc5cccc(CC6CCC(=O)NC6=O)c5)nc4)ncc23)c2cc(C)c(=O)n(C)c2c1 (stereo not drawn) [Example B4, N-(3-(3-((2,6-Dioxopiperidin-3-yl)methyl)phenyl)prop-2-yn-1-yl)-5-(8-(7-ethyl-1,3-dimethyl-2-oxo-1,2-dihydroquinolin-5-yl)isoquinolin-3-yl)picolinamide]	100 to 999	40 to 59	60 to 79	10 to 99
CCc1cc(-c2cccc3cc(-c4ccc(C(=O)NCC#Cc5ccc6cnn(C7CCC(=O)NC7=O)c6c5)nc4)ncc23)c2cc(C)c(=O)n(C)c2c1 (stereo not drawn) [Example B5, N-(3-(1-(2,6-Dioxopiperidin-3-yl)-1H-indazol-6-yl)prop-2-yn-1-yl)-5-(8-(7-ethyl-1,3-dimethyl-2-oxo-1,2-dihydroquinolin-5-yl)isoquinolin-3-yl)picolinamide]	> 1000	< 20	> 80	1 to 9.9
CCc1cc(-c2cccc3cc(-c4ccc(C(=O)NCC#Cc5cc(NC6CCC(=O)NC6=O)nn5C)nc4)ncc23)c2cc(C)c(=O)n(C)c2c1 (stereo not drawn) [Example B7, N-(3-(3-((2,6-Dioxopiperidin-3-yl)amino)-1-methyl-1H-pyrazol-5-yl)prop-2-yn-1-yl)-5-(8-(7-ethyl-1,3-dimethyl-2-oxo-1,2-dihydroquinolin-5-yl)isoquinolin-3-yl)picolinamide]	> 1000	< 20	20 to 39	1 to 9.9
CCc1cc(-c2cccc3cc(-c4ccc(C(=O)NCC#Cc5ccc6c(c5)n(C5CCC(=O)NC5=O)c(=O)n6C)nc4)ncc23)c2cc(C)c(=O)n(C)c2c1 (stereo not drawn) [Example B8, N-(3-(3-(2,6-Dioxopiperidin-3-yl)-1-methyl-2-oxo-2,3-dihydro-1H-benzo[d]imidazol-5-yl)prop-2-yn-1-yl)-5-(8-(7-ethyl-1,3-dimethyl-2-oxo-1,2-dihydroquinolin-5-yl)isoquinolin-3-yl)picolinamide]	10 to 99	40 to 59	> 80	1 to 9.9
CN1Cc2c(-c3cccc4cc(-c5ccc(C(=O)NCC#Cc6ccc7cnn(C8CCC(=O)NC8=O)c7c6)nc5)ncc34)cc(C(C)(F)F)cc2N(C)C1=O (stereo not drawn) [Example B9, 5-(8-(7-(1,1-Difluoroethyl)-1,3-dimethyl-2-oxo-1,2,3,4-tetrahydroquinazolin-5-yl)isoquinolin-3-yl)-N-(3-(1-(2,6-dioxopiperidin-3-yl)-1H-indazol-6-yl)prop-2-yn-1-yl)picolinamide]	10 to 99	40 to 59	> 80	1 to 9.9
CCc1cc(N(C)c2ccc(-c3cnc(C(=O)NCC#Cc4cccc(NC5CCC(=O)NC5=O)c4)c(C)c3)nc2)c2cc(C)c(=O)n(C)c2c1 (stereo not drawn) [Example B16, N-(3-(3-((2,6-Dioxopiperidin-3-yl)amino)phenyl)prop-2-yn-1-yl)-5-((7-ethyl-1,3-dimethyl-2-oxo-1,2-dihydroquinolin-5-yl)(methyl)amino)-5′-methyl-[2,3′-bipyridine]-6′-carboxamide]	100 to 999	20 to 39	> 80	1 to 9.9
